Assay results from patent publication US10577315B2, “Compositions and methods for treatment of prostate carcinoma” (Pellficure Pharmaceuticals, Inc., priority 2014, dated 2020).

Tested on: PTEN-P2/GFP prostate cancer cells
Assay: Effect of 1,4-naphthoquinone analogs on PTEN-P2/GFP cell proliferation (WST-1 cell viability, 24 h)
Format: cell-based
Conditions: Mus musculus, WST-1, medium with 10% FBS and DHT, read-out: PTEN-P2/GFP cell proliferation, percent of control
Procedure: Cells are grown in phenol red-free DMEM medium containing 10% FBS, 2 mM L-glutamine, 100 U/ml penicillin/100 μg/ml streptomycin, insulin-selenium-transferrin (5 μg/ml insulin), and DHT 10^−8M final. Androgen withdrawal is achieved by not adding DHT to the medium. Cells are maintained in a humidified incubator at 37° C. and 5% CO2. G418 (100 μg/ml) is added to maintain stable expression of H2B-GFP.
100 microliters of PTEN-P2/GFP prostate cancer cells were plated at a density of 8000 cells/well in 96-well plates (triplicates) in growing medium containing 10% Fetal Bovine Serum and DHT. The next day, increasing concentrations of a 1,4-naphthoquinone analog (diluted from 10 mM DMSO stock solutions) were added. DMSO used as solvent for all analogs, was kept constant through the 96-well plates. The control consisted of DMSO alone. The cells were subsequently incubated for 24 hours at 37° C. and 5% CO2 in normal cell growth conditions. Cell viability was assessed by adding 9 μL/well of WST-1 reagent (Clontech), which measured mitochondrial activity of live cells. […] The incubation time was 3 hours at 37° C. Optical density of the cell samples was measured at 460 nm, by using plate reader Spectra Max 250 (Molecular Devices). The drug was determined to be cytotoxic when OD values show an inverse correlation with analog concentrations. The results are shown in TABLES 3.1-3.4, FIGS. 2A-2E, and FIGS. 3A-3D.

Structure (SMILES): Cc1cccc(OC2=CC(=O)c3ccccc3C2=O)c1 [Analog F08, 2-(3-methylphenoxy)-1,4-naphthoquinone]
- activity at 2 µM: 102%
- activity at 3 µM: 101%
- activity at 4 µM: 99.4%
- activity at 5 µM: 92.2%
- activity at 6 µM: 83.9%
- activity at 7 µM: 68.8%
- activity at 10 µM: 30.8%
- activity at 15 µM: 12.8%
- activity at 25 µM: 9.66%

Structure (SMILES): O=C1C=C(Oc2ccc3ccccc3c2)C(=O)c2ccccc21 [Analog F09, 2-(naphthalene-2-yloxy)-1,4-naphthoquinone]
- activity at 1.2 µM: 117%
- activity at 2.5 µM: 114%
- activity at 5 µM: 106%
- activity at 7.5 µM: 70%
- activity at 10 µM: 28.7%
- activity at 15 µM: 1.97%
- activity at 20 µM: 3.09%

Structure (SMILES): O=C1C=C(Oc2ccc(O)cc2)C(=O)c2ccccc21 [Analog F10, 2-(4-hydroxyphenoxy)-1,4-naphthoquinone]
- activity at 2 µM: 98.6%
- activity at 3 µM: 95.4%
- activity at 4 µM: 91.2%
- activity at 5 µM: 82.8%
- activity at 6 µM: 67.1%
- activity at 7 µM: 53.6%
- activity at 10 µM: 25.2%
- activity at 15 µM: 16.7%
- activity at 25 µM: 17.6%

Structure (SMILES): CN(C)CCc1ccc(OC2=CC(=O)c3ccccc3C2=O)cc1 [Analog F11, 2-(4-(2-dimethylaminoethyl)phenoxy)-1,4-naphthoquinone]
- activity at 2 µM: 99.6%
- activity at 3 µM: 93.4%
- activity at 4 µM: 79.2%
- activity at 5 µM: 61.3%
- activity at 6 µM: 46%
- activity at 7 µM: 36.4%
- activity at 10 µM: 22.8%
- activity at 15 µM: 12.3%
- activity at 25 µM: 9.33%

Structure (SMILES): O=C1C=C(Oc2ccc([N+](=O)[O-])cc2)C(=O)c2ccccc21 [Analog F12, 2-(4-nitrophenoxy)naphthalene-1,4-dione]
- activity at 1.2 µM: 122%
- activity at 2.5 µM: 118%
- activity at 5 µM: 118%
- activity at 7.5 µM: 117%
- activity at 10 µM: 115%
- activity at 15 µM: 78.8%
- activity at 20 µM: 8.27%

Structure (SMILES): O=C1C=C(Oc2ccc(Cl)cc2Cc2ccccc2)C(=O)c2ccccc21 [Analog F13, 2-(2-benzyl-4-chlorophenoxy)naphthalene-1,4-dione]
- activity at 1.2 µM: 129%
- activity at 2.5 µM: 119%
- activity at 5 µM: 60.5%
- activity at 7.5 µM: 17.5%
- activity at 10 µM: 1.69%
- activity at 15 µM: 2.19%
- activity at 20 µM: 2.53%

Structure (SMILES): O=C1C=C(Oc2ccc(Cl)cc2)C(=O)c2ccccc21 [Analog F14, 2-(4-chlorophenoxy)naphthalene-1,4-dione]
- activity at 1.2 µM: 100%
- activity at 2.5 µM: 92.3%
- activity at 5 µM: 86.2%
- activity at 7.5 µM: 71%
- activity at 10 µM: 19.2%
- activity at 15 µM: 1.27%
- activity at 20 µM: 2.3%

Structure (SMILES): Cc1cc(OC2=CC(=O)c3ccccc3C2=O)ccc1Cl [Analog F15, 2-(4-chloro-3-methylphenoxy)naphthalene-1,4-dione]
- activity at 1.2 µM: 95.6%
- activity at 2.5 µM: 89%
- activity at 5 µM: 97.1%
- activity at 7.5 µM: 55.5%
- activity at 10 µM: 4.3%
- activity at 15 µM: 1.67%
- activity at 20 µM: 2.4%

Structure (SMILES): COc1ccc(OC2=CC(=O)c3ccccc3C2=O)c(Cl)c1 [Analog F16, 2-(2-chloro-4-methoxyphenoxy)naphthalene-1,4-dione]
- activity at 1.2 µM: 92.8%
- activity at 2.5 µM: 97%
- activity at 5 µM: 82.5%
- activity at 7.5 µM: 12%
- activity at 10 µM: 0.73%
- activity at 15 µM: 1.43%
- activity at 20 µM: 2.3%

Structure (SMILES): O=C1C=C(Oc2cc(F)cc(F)c2)C(=O)c2ccccc21 [Analog F17, 2-(3,5-difluorophenoxy)naphthalene-1,4-dione]
- activity at 1.2 µM: 97%
- activity at 2.5 µM: 91.8%
- activity at 5 µM: 88.7%
- activity at 7.5 µM: 78.2%
- activity at 10 µM: 71.5%
- activity at 15 µM: 1.07%
- activity at 20 µM: 2.53%
